ChEMBL document CHEMBL4342426, “Structure-activity relationship of 4-azaindole-2-piperidine derivatives as agents against Trypanosoma cruzi” (Bioorg Med Chem Lett, 2020)

How the values were obtained:
cells = conditions: Homo sapiens, MRC-5 SV2, 72 h
Description: (§1) Cytotoxicity against human MRC5 SV2 cells assessed as reduction in cell viability incubated for 3 days by fluorimetry

Macrophage = assay: cells; conditions: Mus musculus, 72 h
Description: (§2) Cytotoxicity against mouse peritoneal Macrophage cells assessed as reduction in cell viability incubated for 3 days by fluorimetry

in vitro [1] = conditions: human, MRC5 SV2 cells
Description: as §1

in vitro [2] = conditions: human, liver microsomes
Description: Metabolic stability in human liver microsomes assessed as intrinsic clearance at 0.5 uM incubated for 30 mins by LC-MS/MS analysis

in vitro [3] = conditions: mouse, liver microsomes
Description: Metabolic stability in mouse liver microsomes assessed as intrinsic clearance at 0.5 uM incubated for 30 mins by LC-MS/MS analysis

physchem = conditions: buffer, pH 7.4
Description: Lipophilicity, logD of compound at pH 7.4 by HPLC analysis

in vitro [4] = conditions: mouse, peritoneal macrophages
Description: as §2

in vitro [5] = conditions: PAMPA
Description: Effective permeability of compound by PAMPA assay

Trypanosoma cruzi = assay: microbe, parasite or virus in culture; conditions: Tulahuen CL2, MRC-5 SV2, 168 h
Description: Antitrypanosomal activity against Trypanosoma cruzi Tulahuen CL2 amastigotes infected in human MRC5 SV2 cells incubated for 7 days by chlorophenol red beta-D-galactopyranoside substrate based spectrophotometric assay

Trypanosoma brucei = assay: microbe, parasite or virus in culture; conditions: Squib 427, 72 h
Description: Antitrypanosomal activity against Trypanosoma brucei Squib 427 assessed as reduction in parasite growth incubated for 72 hrs by resazurin dye based fluorimetric analysis

[6] = system: Trypanosoma brucei rhodesiense; assay: microbe, parasite or virus in culture; conditions: STIB900, 72 h
Description: Antiprotozoal activity against Trypanosoma brucei rhodesiense STIB900 trypomastigotes incubated for 72 hrs by resazurin dye based fluorimetric analysis

Leishmania infantum = assay: microbe, parasite or virus in culture; conditions: for IC50: MHOM/MA(BE)/67/ITMAP263, 120 h; for IC90: MHOM/MA(BE)/67/ITMAP263, in Mus musculus, 120 h
Description: Antileishmanial activity against amastigote stage of Leishmania infantum MHOM/MA(BE)/67/ITMAP263 infected in mouse peritoneal macrophage assessed as parasite growth inhibition incubated for 5 days by Giemsa staining based assay

Row | IC90 at 72 h (in vitro [1]) [µM] | CLint scaled at 0.5 h, 0.5 µM (in vitro [2]) [mL/min/kg] | microsomal CLint at 0.5 h, 0.5 µM (in vitro [2]) [µL/min/mg] | CLint scaled at 0.5 h, 0.5 µM (in vitro [3]) [mL/min/kg] | microsomal CLint at 0.5 h, 0.5 µM (in vitro [3]) [µL/min/mg] | logD (physchem) | IC90 at 72 h (in vitro [4]) [µM] | Papp (in vitro [5]) [×10⁻⁶ cm/s] | IC50 (Trypanosoma brucei) [µM] | IC90 (Trypanosoma brucei) [µM] | IC50 [6] [µM] | IC90 [6] [µM] | IC50 (Leishmania infantum) [µM] | IC90 (Leishmania infantum) [µM] | Structure (SMILES) | IC50 (cells) [µM] | IC50 (Macrophage) [µM] | IC50 (Trypanosoma cruzi) [µM] | IC90 (Trypanosoma cruzi) [µM] | CC50 at 72 h (in vitro [1]) [µM]
1 | 64 | < 31.7 | < 23 | < 95 | < 23 | 2.49 | 64 | 8.77 | 64 | 64 | 64 | 64 | 64 | 64 | O=C(NCCc1nc2ncc(Cl)cc2[nH]1)c1ccccc1 | 64 | 64 | 64 | 64 | 
2 | 64 | < 25 | < 23 | 523 | 164 | 1.85 | 64 | 2.33 | 64 | 64 | 64 | 64 | 64 | 64 | O=C(c1ccccn1)N1CCCC(c2cc3ncccc3[nH]2)C1 (stereo not drawn) | 64 | 64 | 64 | 64 | 
3 | 64 | 201 | 61.9 | 13200 | 1370 | 4.15 | 64 | 4.86 | 64 | 64 | 64 | 64 | 64 | 64 | O=C(c1ccccc1)N1CC=C(c2cc3ccccc3[nH]2)CC1 | 64 | 64 | 41.9 | 64 | 
4 | 64 |  |  |  |  |  | 64 |  | 64 | 64 | 64 | 64 | 64 | 64 | O=C(NCCc1nc2ccccc2[nH]1)c1ccccc1 | 64 | 64 | 64 | 64 | 
5 | 64 | 223 | 160 | 2050 | 498 | 3.31 | 14.9 | 15.7 | 64 | 64 | 59.4 | 64 | 11.4 | 15.1 | CN(CC(O)c1cc2ncccc2n1S(=O)(=O)c1ccccc1)C(=O)c1ccccc1 (stereo not drawn) | 64 | 11.3 | 64 | 64 | 
6 | 64 |  |  |  |  |  | 59.7 |  | 64 | 64 | 64 | 64 | 45.6 | 60.5 | O=S(=O)(c1ccccc1)N1CC=C(c2cc3ncccc3[nH]2)CC1 | 64 | 45.3 | 64 | 64 | 
7 | 64 |  |  |  |  |  | 64 |  | 64 | 64 | 64 | 64 | 64 | 64 | CC(C)(C)OC(=O)N1CCCC(O)(c2cc3ncccc3[nH]2)C1 (stereo not drawn) | 64 | 64 | 64 | 64 | 
8 | 64 |  |  |  |  | 1.63 | 64 | 3.35 to 3.44 | 64 | 64 | 64 | 64 | 64 | 64 | CCN(CCc1nc2ncccc2[nH]1)C(=O)c1ccccc1 | 64 | 64 | 64 | 64 | 
9 | 64 | 50.5 to 54.2 | 32.9 | 310 to 555 | 68.3 to 114 | 3.5 | 59.7 | 5.51 | 64 | 64 | 64 | 64 | 39.2 | 59 | N#Cc1cnc2cc(C3CCCN(C(=O)c4cc(C(F)(F)F)no4)C3)[nH]c2c1 (stereo not drawn) | 64 | 45.3 | 64 | 64 | 
10 | 64 |  |  |  |  |  | 64 |  | 64 | 64 | 64 | 64 | 64 | 64 | CC(=O)N1C=C(c2cc3ncccc3[nH]2)CCC1 | 64 | 64 | 64 | 64 | 
11 | 64 | 40.7 | 24.1 | 4900 | 980 | 2.46 | 64 |  | 64 | 64 | 64 | 64 | 64 | 64 | CC(C)c1cc(C(=O)N2CCC(O)(c3cc4ncccc4[nH]3)CC2)on1 | 64 | 64 | 45.9 | 64 | 
12 | 64 | ≥ 25 | < 23 | > 963 | 301 | 3.24 | 64 | 6.13 | 64 | 64 | 64 | 64 | 64 | 64 | O=C(CCc1nc2ncc(Cl)cc2[nH]1)Nc1cccc(F)c1 | 64 | 64 | 64 | 64 | 
13 | 64 | < 33.3 | < 23 | 516 | 120 | 2.81 | 64 | 5.97 | 64 | 64 | 64 | 64 | 64 | 64 | O=C(CCc1nc2ncc(Cl)cc2[nH]1)Nc1ccccc1 | 64 | 64 | 64 | 64 | 
14 | 64 |  |  |  |  |  | 64 |  | 64 | 64 | 64 | 64 | 64 | 64 | CCCC(=O)N1CCCC(O)(c2cc3ncccc3[nH]2)C1 (stereo not drawn) | 64 | 64 | 64 | 64 | 
15 | 64 | 143 | 94.4 | 1920 | 434 | 2.13 | 64 |  | 64 | 64 | 64 | 64 | 64 | 64 | OC1(c2cc3ncccc3[nH]2)CCN(Cc2ccccc2)CC1 | 64 | 64 | 64 | 64 | 
16 | 64 | 52 | 31 | 956 | 193 | 2.13 | 64 |  | 64 | 64 | 64 | 64 | 64 | 64 | O=C(c1ccccc1)N1CCC(O)(c2cc3ncccc3[nH]2)CC1 | 64 | 64 | 64 | 64 | 
17 | 64 | < 31.3 | < 23 |  |  | 1.24 | 64 |  | 64 | 64 | 64 | 64 | 64 | 64 | O=C(c1cncnc1)N1CCCC(c2cc3ncccc3[nH]2)C1 (stereo not drawn) | 64 | 64 | 64 | 64 | 
18 | 64 |  |  |  |  | 1.75 | 64 | 2.72 | 64 | 64 | 64 | 64 | 64 | 64 | O=C(CCc1nc2ncccc2[nH]1)Nc1ccccc1 | 64 | 64 | 64 | 64 | 
19 |  |  |  |  |  |  |  |  |  |  |  |  |  |  | O=C(Cn1ccnc1[N+](=O)[O-])NCc1ccccc1 [BENZNIDAZOLE] |  |  | 2 to 5 |  | 
20 |  |  |  |  |  |  |  |  |  |  |  |  |  |  | CC(=O)O[C@H]1C(=O)[C@@]2(C)[C@H]([C@H](OC(=O)c3ccccc3)[C@]3(O)C[C@H](OC(=O)[C@H](O)[C@@H](NC(=O)c4ccccc4)c4ccccc4)C(C)=C1C3(C)C)[C@]1(OC(C)=O)CO[C@@H]1C[C@@H]2O [PACLITAXEL] |  |  |  |  | < 0.01
21 |  |  |  |  |  |  |  |  |  |  |  |  |  |  | CC[C@]1(O)C[C@@H]2CN(CCc3c([nH]c4ccccc34)[C@@](C(=O)OC)(c3cc4c(cc3OC)N(C)[C@H]3[C@@](O)(C(=O)OC)[C@H](OC(C)=O)[C@]5(CC)C=CCN6CC[C@]43[C@@H]65)C2)C1 [VINBLASTINE] |  |  |  |  | < 0.01
